Data as given in patent publication US10953027B2, “Active agents and methods of their use for the treatment of metabolic disorders and nonalcoholic fatty liver disease” (Flagship Pioneering Innovations V, Inc., priority 2018, dated 2021).

Assays:
Type in all cases: in vitro ADME
[1] = Assay 1. Stability in Simulated Gastric Fluid (SGF); details: 1 μM, 37° C., SGF pH 1.6 with pepsin
Summary of the method: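 Simulated gastric fluid, prepared fresh as NaCl buffer at pH 1.6 with 0.1 mg/mL pepsin and FaSSIF powder, received test compound to 1 μM final and was held at 37 °C. LC/MS of acetonitrile-quenched samples, taken immediately and then periodically, gave degradation rates.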

[2] = Assay 2. Stability in Simulated Intestinal Fluid (SIF); details: 1 μM, 37° C., SIF pH 6.7 with pancreatin
Summary of the method: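 Degradation rate measured by LC/MS after acetonitrile quench of timed aliquots, starting at T0. Test compound 1 μM in simulated intestinal fluid (pH 6.7 phosphate buffer, FaSSIF powder, pancreatin), shaken at 37 °C.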

[3] = Assay 3. Fecal Incubation Stability; details: 1 or 10 μM, human fecal slurry, anaerobic

Compound	Assay 1 (SGF) (% Remaining @ 1 hours) [1]	Assay 2 (SIF) (% @ Remaining 4 hours) [2]	Assay 3 (% Remaining at 24 h) [3]
CCC(=O)O[C@@H]1[C@@H](OC(=O)CC)[C@@H](OC)OC[C@@H]1OC(=O)CC [Compound 86, (2S,3R,4S,5S)-2-methoxy-3,5-bis(propanoyloxy)oxan-4-yl Propanoate]	C (C: >75% of the tested compound remaining)	B (B: 25-75% of the tested compound remaining)	C (C: >75% of the tested compound remaining)
CCCC(=O)OC[C@H]1O[C@H](OC)[C@H](OC(=O)CCC)[C@@H](OC(=O)CCC)[C@@H]1OC(=O)CCC [Compound 87, [(2R,3R,4S,5R,6S)-3,4,5-tris(butanoyloxy)-6-methoxyoxan-2-yl]methyl Butanoate]	B (B: 25-75% of the tested compound remaining)	A (A: <25% of the tested compound remaining)	A (A: <25% of the tested compound remaining)
CCC(=O)O[C@@H]1[C@@H](OC(=O)CC)[C@H](OC(=O)/C=C/c2c[nH]c3ccccc23)OC[C@H]1OC(=O)CC [Compound 123, (2S,3R,4S,5R)-3,4,5-tris(propanoyloxy)oxan-2-yl (2E)-3-(1H-indol-3-yl)prop-2-enoate]	C (C: >75% of the tested compound remaining)	A (A: <25% of the tested compound remaining)	A (A: <25% of the tested compound remaining)
CCC(=O)O[C@H]1[C@H](OC(=O)Cc2c[nH]c3ccccc23)OC[C@@H](OC(=O)CC)[C@H]1OC(=O)CC [Compound 138, (2S,3R,4R,5R)-2-{[2-(1H-indol-3-yl)acetyl]oxy}-4,5-bis(propanoyloxy)oxan-3-yl Propanoate]	C (C: >75% of the tested compound remaining)	A (A: <25% of the tested compound remaining)	A (A: <25% of the tested compound remaining)
CCCC(=O)O[C@@H]1[C@@H](OC(=O)CCC)[C@H](Oc2ccccc2C(=O)O)OC[C@H]1OC(=O)CCC [Compound 227, 2-{[(2S,3R,4S,5R)-3,4,5-tris(butanoyloxy)oxan-2-yl]oxy}benzoic Acid]	C (C: >75% of the tested compound remaining)	A (A: <25% of the tested compound remaining)	A (A: <25% of the tested compound remaining)
CCCC(=O)Oc1ccc(-c2cc(=O)c3c(OC(=O)CCC)cc(OC(=O)CCC)cc3o2)cc1 [Compound 201, 5-(butanoyloxy)-2-[4-(butanoyloxy)phenyl]-4-oxo-4H-chromen-7-yl Butanoate]	B (B: 25-75% of the tested compound remaining)	A (A: <25% of the tested compound remaining)	A (A: <25% of the tested compound remaining)
CCC(=O)OC[C@H]1O[C@@H](OC(=O)CCc2c[nH]c3ccccc23)[C@H](OC(=O)CC)[C@@H](OC(=O)CC)[C@@H]1OC(=O)CC [Compound 144, [(2R,3R,4S,5R,6S)-6-{[3-(1H-indol-3-yl)propanoyl]oxy}-3,4,5-tris(propanoyloxy)oxan-2-yl]methyl Propanoate]	C (C: >75% of the tested compound remaining)	A (A: <25% of the tested compound remaining)	A (A: <25% of the tested compound remaining)
CCC(=O)O[C@@H]1[C@@H](OC(=O)CC)[C@H](OC(=O)CCc2c[nH]c3ccccc23)OC[C@@H]1OC(=O)CC [Compound 107, (2S,3R,4S,5S)-3,4,5-tris(propanoyloxy)oxan-2-yl 3-(1H-indol-3-yl)propanoate]	C (C: >75% of the tested compound remaining)	A (A: <25% of the tested compound remaining)	A (A: <25% of the tested compound remaining)
O=C(Cc1c[nH]c2ccccc12)Oc1cc(C(=O)O)cc(OC(=O)Cc2c[nH]c3ccccc23)c1OC(=O)Cc1c[nH]c2ccccc12 [Compound 237, 3,4,5-tris({[2-(1H-indol-3-yl)acetyl]oxy})benzoic Acid]	C (C: >75% of the tested compound remaining)	A (A: <25% of the tested compound remaining)	A (A: <25% of the tested compound remaining)
C[C@@H]1CCO[C@](C)(C(=O)Oc2ccc(/C=C/c3cc(OC(=O)[C@@]4(C)OCC[C@@H](C)O4)cc(OC(=O)[C@@]4(C)OCC[C@@H](C)O4)c3)cc2)O1 [Compound 257, 3-[(2S,4R)-2,4-dimethyl-1,3-dioxane-2-carbonyloxy]-5-[(1E)-2-{4-[(2S,4R)-2,4-dimethyl-1,3-dioxane-2-carbonyloxy]phenyl}ethenyl]phenyl (2S,4R)-2,4-dimethyl-1,3-dioxane-2-carboxylate]	C (C: >75% of the tested compound remaining)	A (A: <25% of the tested compound remaining)	A (A: <25% of the tested compound remaining)
CCC(=O)O[C@@H]1[C@@H](OC(=O)CC)[C@@H](OC(=O)CC)C(O)O[C@H]1C (stereo partly drawn) [Compound 145, (3R,4R,5S,6S)-2-hydroxy-6-methyl-4,5-bis(propanoyloxy)oxan-3-yl Propanoate]	C (C: >75% of the tested compound remaining)	A (A: <25% of the tested compound remaining)	C (C: >75% of the tested compound remaining)
CCC(=O)O[C@@H]1[C@@H](OC(=O)CC)[C@@H](OC)OC[C@H]1OC(=O)CC [Compound 105, (2S,3R,4S,5R)-2-methoxy-4,5-bis(propanoyloxy)oxan-3-yl Propanoate]	C (C: >75% of the tested compound remaining)	B (B: 25-75% of the tested compound remaining)	A (A: <25% of the tested compound remaining)
CCC(=O)O[C@H]1OC[C@@H](OC(=O)CC)[C@@H](OC(=O)CC)[C@H]1OC(=O)CC [Compound 133, (2R,3R,4R,5R)-3,4,5-tris(propanoyloxy)oxan-2-yl Propanoate]	C (C: >75% of the tested compound remaining)	A (A: <25% of the tested compound remaining)	A (A: <25% of the tested compound remaining)
CCC(=O)O[C@@H]1[C@@H](OC(=O)CC)[C@H](C)O[C@@H](OC(=O)/C=C/c2c[nH]c3ccccc23)[C@@H]1OC(=O)CC [Compound 134, (2S,3R,4R,5S,6S)-6-methyl-3,4,5-tris(propanoyloxy)oxan-2-yl (2E)-3-(1H-indol-3-yl)prop-2-enoate]	C (C: >75% of the tested compound remaining)	B (B: 25-75% of the tested compound remaining)	A (A: <25% of the tested compound remaining)
CCCC(=O)Oc1cc(OC(=O)CCC)c2c(c1)O[C@H](c1cc(OC(=O)CCC)c(OC(=O)CCC)c(OC(=O)CCC)c1)[C@H](OC(=O)c1cc(OC(=O)CCC)c(OC(=O)CCC)c(OC(=O)CCC)c1)C2 [Compound 3, [(2R,3R)-5,7-di(butanoyloxy)-2-[3,4,5-tri(butanoyloxy)phenyl]chroman-3-yl] 3,4,5-tri(butanoyloxy)benzoate]	C (C: >75% of the tested compound remaining)	C (C: >75% of the tested compound remaining)	C (C: >75% of the tested compound remaining)
CCC(=O)OC[C@H]1O[C@H](OC)[C@H](OC(=O)CC)[C@@H](OC(=O)CC)[C@H]1OC(=O)CC [Compound 90, [(2R,3S,4S,5R,6S)-6-methoxy-3,4,5-tris(propanoyloxy)oxan-2-yl]methyl Propanoate]	C (C: >75% of the tested compound remaining)	A (A: <25% of the tested compound remaining)	A (A: <25% of the tested compound remaining)
CCCC(=O)O[C@@H]1[C@H](OC(=O)CCC)C=C(C(=O)O)C[C@H]1OC(=O)CCC [Compound 255, (3R,4S,5R)-3,4,5-tris(butanoyloxy)cyclohex-1-ene-1-carboxylic Acid]	C (C: >75% of the tested compound remaining)	C (C: >75% of the tested compound remaining)	B (B: 25-75% of the tested compound remaining)
CCC(=O)OC[C@H]1O[C@H](OC(=O)CCc2c[nH]c3ccccc23)[C@H](OC(=O)CC)[C@@H](OC(=O)CC)[C@@H]1OC(=O)CC [Compound 141, [(2R,3R,4S,5R,6R)-6-{[3-(1H-indol-3-yl)propanoyl]oxy}-3,4,5-tris(propanoyloxy)oxan-2-yl]methyl Propanoate]	C (C: >75% of the tested compound remaining)	A (A: <25% of the tested compound remaining)	A (A: <25% of the tested compound remaining)
CCCC(=O)OC[C@H]1O[C@@H](OC(=O)CCc2c[nH]c3ccccc23)[C@H](OC(=O)CCC)[C@@H](OC(=O)CCC)[C@@H]1OC(=O)CCC [Compound 118, [(2R,3R,4S,5R,6S)-3,4,5-tris(butanoyloxy)-6-{[3-(1H-indol-3-yl)propanoyl]oxy}oxan-2-yl]methyl Butanoate]	B (B: 25-75% of the tested compound remaining)	A (A: <25% of the tested compound remaining)	A (A: <25% of the tested compound remaining)
